According to patent US11214594B2, “Antimicrobial peptide having synergistic antibacterial effect with antibiotics on multidrug resistant bacteria, and use thereof” (priority 2016, dated 2022):
In brackets after ≈: the same amount, converted by molar mass. Where two headings read alike, the source gives them in different places. Where a SMILES comes first, the peptide text is derived from it.

Legend:
A. baumannii [1] = experiment: MIC of antimicrobial peptide during combined treatment with antibiotic; assay type: cell-based, Acinetobacter baumannii
Summary of the method: (§1)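 Strains in MH medium at 2×10^6 CFU/ml were mixed with peptide diluted stepwise (2:1) from its MIC, then antibiotic dilutions in MH medium were added to give the antibiotic MIC. The reversed set-up, peptide titrated against fixed antibiotic, gave the peptide MIC.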

MDRAB 12035 [2] = experiment: as above; assay type: cell-based, Acinetobacter baumannii
Summary of the method: as §1

A. baumannii [3] = experiment: MIC of antibiotic during combined treatment with antimicrobial peptide; assay type: cell-based, Acinetobacter baumannii; conditions: A. baumannii
Summary of the method: (§2)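 Checkerboard-type MIC of peptide–antibiotic mixtures in MH medium: the antibiotic was serially diluted in MH medium and added to wells, then the reversed arrangement was also tested.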

B. subtilis = experiment: microbe, parasite or virus in culture; assay type: cell-based, Bacillus subtilis
Summary of the method: (§3)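 Broth microdilution in MH medium: strains diluted to 2×10^6 CFU were mixed with equal volumes of twofold serial peptide dilutions in MH medium. MIC was taken as the lowest peptide concentration preventing bacterial growth.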

E. coli [4] = experiment: MIC of antibiotic during combined treatment with antimicrobial peptide; assay type: cell-based, Escherichia coli; conditions: for Antibiotic MIC, Erythromycin / Antibiotic MIC, Linezolid / Antibiotic MIC, Vancomycin: E. coli
Summary of the method: as §2

P. aeruginosa = experiment: microbe, parasite or virus in culture; assay type: cell-based, Pseudomonas aeruginosa
Summary of the method: as §3

E. coli [5] = experiment: microbe, parasite or virus in culture; assay type: cell-based, Escherichia coli; conditions: 16 h
Summary of the method: as §3

MDREC 1229 [6] = experiment: microbe, parasite or virus in culture; assay type: cell-based, Escherichia coli
Summary of the method: as §3

E. coli [7] = assay type: cell-based, Escherichia coli; conditions: E. coli
Summary of the method: as §1

MDREC 1229 [8] = assay type: cell-based, Escherichia coli
Summary of the method: as §1

S. aureus = experiment: microbe, parasite or virus in culture; assay type: cell-based, Staphylococcus aureus
Summary of the method: as §3

S. epidermidis = experiment: microbe, parasite or virus in culture; assay type: cell-based, Staphylococcus epidermidis
Summary of the method: as §3

MDRST 8009 = assay type: cell-based, Salmonella typhimurium; conditions: agent alone
Summary of the method: as §3

A. baumannii [9] = experiment: microbe, parasite or virus in culture; assay type: cell-based, Acinetobacter baumannii
Summary of the method: as §3

MDRAB 12035 [10] = experiment: microbe, parasite or virus in culture; assay type: cell-based, Acinetobacter baumannii
Summary of the method: as §3

[11] = erythromycin 4 μg/ml (Conc./MIC 1/8)
[12] = erythromycin 8 μg/ml (Conc./MIC 1/4)
[13] = erythromycin 16 μg/ml (Conc./MIC 1/2)
[14] = erythromycin 32 μg/ml (Conc./MIC 1)
[15] = vancomycin 512 μg/ml (Conc./MIC 1/2)
[16] = vancomycin 1024 μg/ml (Conc./MIC 1)
[17] = combined with peptide at 1 μg/ml
[18] = combined with peptide at 2 μg/ml
[19] = combined with peptide at 4 μg/ml
[20] = combined with peptide at 6 μg/ml
[21] = combined with peptide at 8 μg/ml
[22] = combined with peptide at 16 μg/ml
[23] = combined with peptide at 32 μg/ml
[24] = combined with peptide at 64 μg/ml
[25] = with Erythromycin […] (Conc./MIC 1)

In the case of `CC[C@H](C)[C@H](NC(=O)[C@H](CCCCN)NC(=O)[C@H](Cc1c[nH]c2ccccc12)NC(=O)[C@@H](N)CCCNC(=N)N)C(=O)N[C@@H](Cc1ccccc1)C(=O)N[C@@H](CCCCN)C(=O)N[C@@H](CCCCN)C(=O)N[C@H](C(=O)N1CCC[C@H]1C(=O)N[C@@H](CCCCN)C(=O)N[C@@H](Cc1ccccc1)C(=O)N[C@@H](CC(C)C)C(=O)N[C@@H](Cc1c[nH]cn1)C(=O)N[C@@H](CO)C(=O)N[C@@H](Cc1c[nH]c2ccccc12)C(=O)N[C@@H](CCCCN)C(=O)N[C@@H](CCCCN)C(=O)N[C@@H](Cc1c[nH]c2ccccc12)C(N)=O)[C@@H](C)CC` [PapMA-4, RWK IFK KIP KFL HSW KKW-NH2] (H-RWKIFKKIPKFLHSWKKW-NH2; N-terminus assumed), the “Peptide MIC during treatment with antibiotic” value (A. baumannii [1]; [11]) is reported as 8 µg/mL, the “Peptide MIC during treatment with antibiotic” value (A. baumannii [1]; [12]) is reported as 4 µg/mL and the “Peptide MIC during treatment with antibiotic” value (A. baumannii [1]; [13]) is reported as 2 µg/mL. For the same compound, the “Peptide MIC during treatment with antibiotic” value (A. baumannii [1]; [14]) was 0 µg/mL, the “Peptide MIC during treatment with antibiotic” value (A. baumannii [1]; linezolid 32 μg/ml (Conc./MIC 1/8)) was 4 µg/mL and the “Peptide MIC during treatment with antibiotic” value (A. baumannii [1]; linezolid 64 μg/ml (Conc./MIC 1/4)) was 4 µg/mL. The “Peptide MIC during treatment with antibiotic” value (A. baumannii [1]; linezolid […] (Conc./MIC 1)) was 0 µg/mL, the “Peptide MIC during treatment with antibiotic” value (A. baumannii [1]; linezolid […] (Conc./MIC 1/2)) was 1 µg/mL and the “Peptide MIC during treatment with antibiotic” value (A. baumannii [1]; [15]) was 0.25 µg/mL. For the same compound, the “Peptide MIC during treatment with antibiotic” value (A. baumannii [1]; [16]) was 0 µg/mL, the “Peptide MIC during treatment with antibiotic” value (A. baumannii [1]; vancomycin […] (Conc./MIC 1/4)) was 0.25 µg/mL and the “Peptide MIC during treatment with antibiotic” value (A. baumannii [1]; vancomycin […] (Conc./MIC 1/8)) was 2 µg/mL. The “Peptide MIC during treatment with erythromycin” value (MDRAB 12035 [2]; [11]) was 4 µg/mL, the “Peptide MIC during treatment with erythromycin” value (MDRAB 12035 [2]; [12]) was 4 µg/mL and the “Peptide MIC during treatment with erythromycin” value (MDRAB 12035 [2]; [13]) was 2 µg/mL. For the same compound, the “Peptide MIC during treatment with erythromycin” value (MDRAB 12035 [2]; [14]) was 0 µg/mL, the “Peptide MIC during treatment with linezolid” value (MDRAB 12035 [2]; linezolid 64 μg/ml (Conc./MIC 1/8)) was 4 µg/mL and the “Peptide MIC during treatment with linezolid” value (MDRAB 12035 [2]; linezolid 512 μg/ml (Conc./MIC 1)) was 0 µg/mL. The “Peptide MIC during treatment with linezolid” value (MDRAB 12035 [2]; linezolid […] (Conc./MIC 1/2)) was 1 µg/mL, the “Peptide MIC during treatment with linezolid” value (MDRAB 12035 [2]; linezolid […] (Conc./MIC 1/4)) was 2 µg/mL and the “Peptide MIC during treatment with vancomycin” value (MDRAB 12035 [2]; [15]) was 2 µg/mL. For the same compound, the “Peptide MIC during treatment with vancomycin” value (MDRAB 12035 [2]; [16]) was 0.25 µg/mL, the “Peptide MIC during treatment with vancomycin” value (MDRAB 12035 [2]; vancomycin […] (Conc./MIC 1/4)) was 2 µg/mL and the “Peptide MIC during treatment with vancomycin” value (MDRAB 12035 [2]; vancomycin […] (Conc./MIC 1/8)) was 4 µg/mL. For the same compound, the “Antibiotic MIC, Erythromycin” value (A. baumannii [3]; [17]) was 32 µg/mL, the “Antibiotic MIC, Linezolid” value (A. baumannii [3]; [17]) was greater than 128 µg/mL and the “Antibiotic MIC, Vancomycin” value (A. baumannii [3]; [17]) was greater than 128 µg/mL. The “Antibiotic MIC, Erythromycin” value (A. baumannii [3]; [18]) was 16 µg/mL, the “Antibiotic MIC, Linezolid” value (A. baumannii [3]; [18]) was 64 µg/mL and the “Antibiotic MIC, Vancomycin” value (A. baumannii [3]; [18]) was 128 µg/mL. The “Antibiotic MIC, Erythromycin” value (A. baumannii [3]; [19]) was 8 µg/mL, the “Antibiotic MIC, Linezolid” value (A. baumannii [3]; [19]) was 64 µg/mL and the “Antibiotic MIC, Vancomycin” value (A. baumannii [3]; [19]) was 64 µg/mL. For the same compound, the “Antibiotic MIC, Erythromycin” value (A. baumannii [3]; [20]) was 4 µg/mL, the “Antibiotic MIC, Linezolid” value (A. baumannii [3]; [20]) was 32 µg/mL and the “Antibiotic MIC, Vancomycin” value (A. baumannii [3]; [20]) was 64 µg/mL. For the same compound, the “Antibiotic MIC, Erythromycin” value (A. baumannii [3]; [21]) was 4 µg/mL, the “Antibiotic MIC, Linezolid” value (A. baumannii [3]; [21]) was 16 µg/mL and the “Antibiotic MIC, Vancomycin” value (A. baumannii [3]; [21]) was 32 µg/mL. The “Antibiotic MIC, Erythromycin” value (A. baumannii [3]; [22]) was 0 µg/mL, the “Antibiotic MIC, Linezolid” value (A. baumannii [3]; [22]) was 0 µg/mL and the “Antibiotic MIC, Vancomycin” value (A. baumannii [3]; [22]) was 0 µg/mL. The “Antibiotic MIC, Erythromycin” value (A. baumannii [3]; [23]) was 0 µg/mL, the “Antibiotic MIC, Linezolid” value (A. baumannii [3]; [23]) was 0 µg/mL and the “Antibiotic MIC, Vancomycin” value (A. baumannii [3]; [23]) was 0 µg/mL. For the same compound, the “Antibiotic MIC, Erythromycin” value (A. baumannii [3]; [24]) was 0 µg/mL, the “Antibiotic MIC, Linezolid” value (A. baumannii [3]; [24]) was 0 µg/mL and the “Antibiotic MIC, Vancomycin” value (A. baumannii [3]; [24]) was 0 µg/mL. The “Minimal inhibitory concentration MIC” value (B. subtilis) was greater than 128 µg/mL, the “Synergistic effect of antibacterial activity with existing antibiotics compared with PapMA-1” value (E. coli [4]; E. coli and MDREC1229) was “level similar to that of the PapMA-1 peptide” and the “Antibiotic MIC, Erythromycin” value (E. coli [4]; erythromycin combined with peptide at 1 μg/ml) was 64 µg/mL. For the same compound, the “Antibiotic MIC, Erythromycin” value (E. coli [4]; erythromycin combined with peptide at 2 μg/ml) was 32 µg/mL, the “Antibiotic MIC, Erythromycin” value (E. coli [4]; erythromycin combined with peptide at 4 μg/ml) was 16 µg/mL and the “Antibiotic MIC, Erythromycin” value (E. coli [4]; erythromycin combined with peptide at 6 μg/ml) was 8 µg/mL. The “Antibiotic MIC, Erythromycin” value (E. coli [4]; erythromycin combined with peptide at 8 μg/ml) was 8 µg/mL, the “Antibiotic MIC, Erythromycin” value (E. coli [4]; erythromycin combined with peptide at 16 μg/ml) was 0 µg/mL and the “Antibiotic MIC, Erythromycin” value (E. coli [4]; erythromycin combined with peptide at 32 μg/ml) was 0 µg/mL. The “Antibiotic MIC, Erythromycin” value (E. coli [4]; erythromycin combined with peptide at 64 μg/ml) was 0 µg/mL, the “Antibiotic MIC, Linezolid” value (E. coli [4]; linezolid combined with peptide at 1 μg/ml) was 128 µg/mL and the “Antibiotic MIC, Linezolid” value (E. coli [4]; linezolid combined with peptide at 2 μg/ml) was 64 µg/mL. The “Antibiotic MIC, Linezolid” value (E. coli [4]; linezolid combined with peptide at 4 μg/ml) was 32 µg/mL, the “Antibiotic MIC, Linezolid” value (E. coli [4]; linezolid combined with peptide at 6 μg/ml) was 32 µg/mL and the “Antibiotic MIC, Linezolid” value (E. coli [4]; linezolid combined with peptide at 8 μg/ml) was 16 µg/mL. For the same compound, the “Antibiotic MIC, Linezolid” value (E. coli [4]; linezolid combined with peptide at 16 μg/ml) was 0 µg/mL, the “Antibiotic MIC, Linezolid” value (E. coli [4]; linezolid combined with peptide at 32 μg/ml) was 0 µg/mL and the “Antibiotic MIC, Linezolid” value (E. coli [4]; linezolid combined with peptide at 64 μg/ml) was 0 µg/mL. For the same compound, the “Antibiotic MIC, Vancomycin” value (E. coli [4]; vancomycin combined with peptide at 1 μg/ml) was greater than 128 µg/mL, the “Antibiotic MIC, Vancomycin” value (E. coli [4]; vancomycin combined with peptide at 2 μg/ml) was greater than 128 µg/mL and the “Antibiotic MIC, Vancomycin” value (E. coli [4]; vancomycin combined with peptide at 4 μg/ml) was greater than 128 µg/mL. For the same compound, the “Antibiotic MIC, Vancomycin” value (E. coli [4]; vancomycin combined with peptide at 6 μg/ml) was 128 µg/mL, the “Antibiotic MIC, Vancomycin” value (E. coli [4]; vancomycin combined with peptide at 8 μg/ml) was 32 µg/mL and the “Antibiotic MIC, Vancomycin” value (E. coli [4]; vancomycin combined with peptide at 16 μg/ml) was 0 µg/mL. The “Antibiotic MIC, Vancomycin” value (E. coli [4]; vancomycin combined with peptide at 32 μg/ml) was 0 µg/mL, the “Antibiotic MIC, Vancomycin” value (E. coli [4]; vancomycin combined with peptide at 64 μg/ml) was 0 µg/mL and the “Minimal inhibitory concentration MIC” value (P. aeruginosa) was 16 µg/mL (≈ 6.51 µM). For the same compound, the “Minimal inhibitory concentration MIC” value (E. coli [5]) was 16 µg/mL (≈ 6.51 µM), the “Minimal inhibitory concentration MIC” value (MDREC 1229 [6]) was 32 µg/mL (≈ 13 µM) and the “Peptide MIC” value (E. coli [7]; [25]) was 0 µg/mL. For the same compound, the “Peptide MIC” value (E. coli [7]; with Linezolid […] (Conc./MIC 1)) was 0 µg/mL, the “Peptide MIC” value (E. coli [7]; with Vancomycin 1024 μg/ml (Conc./MIC 1)) was 0 µg/mL and the “Peptide MIC” value (MDREC 1229 [8]; [25]) was 0 µg/mL. For the same compound, the “Peptide MIC” value (MDREC 1229 [8]; with Linezolid 512 μg/ml (Conc./MIC 1)) was 0 µg/mL, the “Minimal inhibitory concentration MIC” value (S. aureus) was greater than 128 µg/mL and the “Minimal inhibitory concentration MIC” value (S. epidermidis) was greater than 128 µg/mL. The “Minimal inhibitory concentration MIC” value (MDRST 8009) was 32 µg/mL (≈ 13 µM), the “Minimal inhibitory concentration MIC” value (A. baumannii [9]) was 16 µg/mL (≈ 6.51 µM) and the “Peptide MIC, peptide alone” value (A. baumannii [9]) was 16 µg/mL. For the same compound, the “Antibacterial activity relative to PapMA-1” value (A. baumannii [9]; A. baumannii and antibiotic-resistant strains thereof) was 4 times, the “Minimal inhibitory concentration MIC” value (MDRAB 12035 [10]) was 16 µg/mL (≈ 6.51 µM) and the “Peptide MIC, peptide alone” value (MDRAB 12035 [10]) was 16 µg/mL.
